For the test, the target named is HCV NS3 protease (UniProt P26663). The format is biochemical, HCV genotype 1b. Set-up: rows headed: IC50 (μM); IC50 (μM). As for the experimental part:
Recombinant HCV NS3 Protease/NS4A Cofactor Peptide Radiometric Assay
The enzyme was cloned, expressed and prepared according to the protocol described in Example 36. The enzyme was stored at −80° C., thawed on ice and diluted just prior to use in the assay buffer containing the NS4A cofactor peptide.
The substrate used for the NS3 protease/NS4A cofactor peptide radiometric assay, DDIVPC-SMSYTW, is cleaved between the cysteine and the serine residues by the enzyme. The sequence DDIVPC-SMSYTW corresponds to the NS5A/NS5B natural cleavage site in which the cysteine residue in P2 has been substituted for a proline. […] (molar ratio enzyme:cofactor 1:100) in the absence or presence of inhibitors. The separation of substrate from products is performed by adding avidin-coated agarose beads to the assay mixture followed by filtration. The amount of SMS[^125I-Y]TW product found in the filtrate allows for the calculation of the percentage of substrate conversion and of the percentage of inhibition.
The enzymatic reaction was initiated by the addition of the enzyme/NS4A peptide solution and the assay mixture was incubated for 40 min at 23° C. under gentle agitation. Ten (10) μL of 0.5N NaOH were added and 10 μL 1 M MES, pH 5.8 were added to quench the enzymatic reaction.
A non-linear curve fit with the Hill model was applied to the inhibition-concentration data, and the 50% effective concentration (IC50) was calculated by the use of SAS software (Statistical Software System; SAS Institute, Inc. Cary, N.C.). […]
The NS2-NS5B-3′ non coding region was cloned by RT-PCR into the pCR®3 vector (Invitrogen) using RNA extracted from the serum of an HCV genotype 1b infected individual (provided by Dr. Bernard Willems, Hôpital St-Luc, Montréal, Québec, Canada). The NS3-NS4A DNA region was then subcloned by PCR into the pFastBac™ HTa baculovirus expression vector (Gibco/BRL). The vector sequence includes a region encoding a 28-residue N-terminal sequence which contains a hexahistidine tag. The Bac-to-Bac™ baculovirus expression system (Gibco/BRL) was used to produce the recombinant baculovirus. The full length mature NS3 and NS4A heterodimer protein (His-NS3-NS4AFL) was expressed by infecting 10^6 Sf21 cells/mL with the recombinant baculovirus at a multiplicity of infection of 0.1-0.2 at 27° C. The infected culture was harvested 48 to 64 h later by centrifugation at 4° C. The cell pellet was homogenized in 50 mM NaPO4, pH 7.5, 40% glycerol (w/v), 2 mM β-mercaptoethanol, in presence of a cocktail of protease inhibitors. His-NS3-NS4AFL was then extracted from the cell lysate with 1.5% NP-40, 0.5% Triton X-100, 0.5M NaCl, and a DNase treatment. After ultracentrifugation, the soluble extract was diluted 4-fold and bound on a Pharmacia Hi-Trap Ni-chelating column. […] The His-NS3-NS4AFL was stored at −80° C. in 50 mM sodium phosphate, pH 7.5, 10% (w/v) glycerol, 0.5 M NaCl, 0.25 M imidazole, 0.1% NP-40. It was thawed on ice and diluted just prior to use. The protease activity of His-NS3-NS4AFL was assayed in 50 mM Tris-HCl, pH 8.0, 0.25 M sodium citrate, 0.01% (w/v) n-dodecyl-β-D-maltoside, 1 mM TCEP. Five (5) μM of the internally quenched substrate anthranilyl-DDIVPAbu[C(O)—O]-AMY(3-NO2)TW-OH in presence of various concentrations of inhibitor were incubated with 1.5 nM of His-NS3-NS4AFL for 45 min at 23° C. […] The reaction was terminated with the addition of 1M MES, pH 5.8. Fluorescence of the N-terminal product was monitored on a Perkin-Elmer LS-50B fluorometer equipped with a 96-well plate reader (excitation wavelength: 325 nm; emission wavelength: 423 nm).
The following tables list compounds representative of the invention.

Read-outs that look alike come from different tables or passages of the source.

HCV NS3 protease, sequence (P26663 1027-1206, other chains not shown): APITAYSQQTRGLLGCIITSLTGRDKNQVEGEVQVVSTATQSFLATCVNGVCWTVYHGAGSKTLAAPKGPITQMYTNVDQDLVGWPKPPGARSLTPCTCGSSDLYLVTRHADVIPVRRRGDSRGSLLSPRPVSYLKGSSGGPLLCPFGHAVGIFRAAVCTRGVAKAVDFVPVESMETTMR

As to `C=CC1CC1(NC(=O)C1CC(Oc2cc(-c3ccccc3)nc3cc(OC)ccc23)CN1C(=O)C(NC(=O)Nc1c(C)cccc1C)C(C)(C)C)C(=O)O` (centres unmarked) [compound 829], the IC50 (in general, the concentration needed to halve the response being measured) (Table 8) turned out to be 57 nM.
`C=CC1CC1(NC(=O)C1CC(Oc2cc(-c3ccccc3)nc3cc(OC)ccc23)CN1C(=O)C(NC(=O)NC(C)C(C)(C)C)C(C)(C)C)C(=O)O` (centres unmarked) [compound 872]: the IC50 (Table 8) is 5 nM.
`C=CC1CC1(NC(=O)C1CC(Oc2cc(-c3ccccc3)nc3cc(OC)ccc23)CN1C(=O)C(NC(=O)NCC)C(C)(C)C)C(=O)O` (centres unmarked) [compound 816] displayed an IC50 (Table 8) of 32 nM.
Turning to `C=CC1CC1(NC(=O)C1CC(Oc2cc(SCC)nc3cc(OC)ccc23)CN1C(=O)C(NC(=O)OC(C)(C)C)C(C)(C)C)C(=O)O` (centres unmarked) [compound 734], where the note is “Table 7”, inhibition was half-maximal at 44 nM (IC50).
Under “Table 8”, `C=CC1CC1(NC(=O)C1CC(Oc2cc(-c3ccccc3)nc3cc(OC)ccc23)CN1C(=O)C(Nc1ccc(CC#N)cc1)C(C)C)C(=O)O` (centres unmarked) [compound 856] yielded an IC50 of 110 nM.
As to `C=CC1CC1(NC(=O)C1CC(Oc2cc(-c3ccccc3)nc3cc(OC)ccc23)CN1C(=O)C(Nc1ccc(NC(C)=O)cc1)C(C)C)C(=O)O` (centres unmarked) [compound 845], 180 nM corresponded to half-maximal inhibition (Table 8) (IC50).
The compound `C=CC1CC1(NC(=O)C1CC(Oc2cc(-c3ccccc3)nc3cc(OC)ccc23)CN1C(=O)C(NC1CCCCC1)C(C)C)C(=O)O` (centres unmarked) [compound 859] had an IC50 (Table 8) of 830 nM.
As to `C=CC1CC1(NC(=O)C1CC(Oc2cc(-c3ccccc3)nc3cc(OC)ccc23)CN1C(=O)C(Nc1ccc(C)cc1)C(C)C)C(=O)O` (centres unmarked) [compound 822], the IC50 (Table 8) came out at 50 nM.
For the compound `C=CC1CC1(NC(=O)C1CC(Oc2cc(N3CCC(OC)CC3)nc3cc(OC)ccc23)CN1C(=O)C(NC(=O)OC(C)(C)C)C(C)(C)C)C(=O)O` (centres unmarked) [compound 721], half-maximal inhibition (Table 7) (IC50) required 45 nM.
On to `C=CC1CC1(NC(=O)C1CC(Oc2cc(-c3ccccc3)nc3cc(OC)ccc23)CN1C(=O)C(Nc1ccc(N)c(C(F)(F)F)c1)C(C)C)C(=O)O` (centres unmarked) [compound 820], for which, for the setting “Table 8”, the IC50 was 63 nM.
Regarding `C=CC1CC1(NC(=O)C1CC(Oc2ccnc3cc(Cl)ccc23)CN1C(=O)C(NC(=O)OC(C)(C)C)C(C)(C)C)C(=O)O` (centres unmarked) [compound 606], the IC50 (Table 6) is 480 nM.
Under “Table 9”, `C=CC1CC1(NC(=O)C1CC(Oc2cc(-c3ccccc3)nc3cc(OC)ccc23)CN1C(=O)C(NC(=O)c1ccc[nH]1)C(C)(C)C)C(=O)O` (centres unmarked) [compound 916] gave an IC50 of 300 nM.
Under “Table 7”, `C=CC1CC1(NC(=O)C1CC(Oc2cc(OCC)nc3cc(OC)ccc23)CN1C(=O)C(NC(=O)OC(C)(C)C)C(C)(C)C)C(=O)O` (centres unmarked) [compound 703] returned an IC50 of 47 nM.
`C=CC1CC1(NC(=O)C1CC(Oc2ccnc3ccccc23)CN1C(=O)C(NC(=O)OC(C)(C)C)C(C)CC)C(=O)O` (centres unmarked) [compound 509] returned an IC50 (Table 5) of 377 nM.
In turn, `C=CC1CC1(NC(=O)C1CC(Oc2cc(-c3ccccc3)nc3cc(SC)ccc23)CN1C(=O)C(NC(=O)OC(C)(C)C)C(C)(C)C)C(=O)O` (centres unmarked) [compound 625] showed an IC50 (Table 6) of 160 nM.
On to `C=CC1C[C@]1(NC(=O)[C@@H]1C[C@@H](Oc2cc(C(C)C)nc3cc(OC)ccc23)CN1C(=O)[C@@H](NC(=O)OC(C)(C)C)C(C)(C)C)C(=O)O` (some centres unmarked) [compound 726], for which, under “Table 7”, the IC50 turned out to be 250 nM.
Take `C=CC1CC1(NC(=O)C1CC(Oc2cc(-c3csc(NC(C)C)n3)nc3cc(OC)ccc23)CN1C(=O)C(NC(=O)OC(C)(C)C)C(C)(C)C)C(=O)O` (centres unmarked) [compound 723]: the IC50 (Table 7) came to 47 nM.
Consider `C=CC1CC1(NC(=O)C1CC(Oc2ccnc3ccccc23)CN1C(=O)C(NC(=O)OC(C)(C)C)C(C)OC)C(=O)O` (centres unmarked) [compound 505], for which the IC50 (Table 5) was 790 nM.
For the compound `C=CC1CC1(NC(=O)C1CC(Oc2cc(-c3ccccc3)nc3cc(OC)ccc23)CN1C(=O)C(Nc1cccc(Oc2ccc(F)cc2)c1)C(C)C)C(=O)O` (centres unmarked) [compound 860], under “Table 8”, the IC50 was 240 nM.
Where the note is “Table 9”, `C=CC1CC1(NC(=O)C1CC(Oc2cc(-c3ccccc3)nc3cc(OC)ccc23)CN1C(=O)C(NC(=O)OC1CCSC1)C(C)(C)C)C(=O)O` (centres unmarked) [compound 907] came in with an IC50 of 25 nM.
`C=CC1CC1(NC(=O)C1CC(Oc2cc(-c3csc(C)n3)nc3ccccc23)CN1C(=O)C(NC(=O)OC(C)(C)C)C(C)(C)C)C(=O)O` (centres unmarked) [compound 621]: the IC50 (Table 6) is 58 nM.
Regarding `C=CC1CC1(NC(=O)C1CC(Oc2cc(-c3csc(NC(C)=O)n3)nc3cc(N(C)C)ccc23)CN1C(=O)C(NC(=O)OC(C)(C)C)C(C)(C)C)C(=O)O` (centres unmarked) [compound 628], the midpoint of inhibition (Table 6), the IC50, lay at 11 nM.
In turn, `C=CC1C[C@]1(NC(=O)[C@@H]1C[C@@H](Oc2cc(C(=O)O)nc3cc(OC)ccc23)CN1C(=O)[C@@H](NC(=O)OC(C)(C)C)C(C)(C)C)C(=O)O` (some centres unmarked) [compound 710] gave an IC50 (Table 7) of 685 nM.
`C=CC1CC1(NC(=O)C1CC(Oc2cc(-c3ccccc3)nc3cc(F)ccc23)CN1C(=O)C(NC(=O)OC(C)(C)C)C(C)(C)C)C(=O)O` (centres unmarked) [compound 627] showed an IC50 (Table 6) of 330 nM.
Compound `C=CC1CC1(NC(=O)C1CC(Oc2cc(-c3ccccc3)nc3cc(OC)ccc23)CN1C(=O)C(NS(=O)(=O)c1cccs1)C(C)(C)C)C(=O)O` (centres unmarked) [compound 912] gave an IC50 (Table 9) of 34 nM.
With `C=CC1CC1(NC(=O)C1CC(Oc2cc(-c3ccccc3)nc3cc(OC)ccc23)CN1C(=O)C(Nc1ccccc1F)C(C)C)C(=O)O` (centres unmarked) [compound 864], the IC50 (Table 8) is 450 nM.
`C=CC1CC1(NC(=O)C1CC(Oc2cc(-c3ccccc3)nc3cc(OC)ccc23)CN1C(=O)C(Nc1ccc(C#N)cc1)C(C)C)C(=O)O` (centres unmarked) [compound 839] showed an IC50 (Table 8) of 100 nM.
`C=CC1CC1(NC(=O)C1CC(Oc2cc(-c3ccccc3)nc3cc(OC)ccc23)CN1C(=O)C(NC(=O)c1cccc(O)c1)C(C)(C)C)C(=O)O` (centres unmarked) [compound 904]: where the note is “Table 9”, the IC50 worked out at 95 nM.
In the case of `C=CC1CC1(NC(=O)C1CC(Oc2cc(-c3ccccc3)nc3cc(OC)ccc23)CN1C(=O)C(NC(=O)OC)C(C)(C)C)C(=O)O` (centres unmarked) [compound 830], under “Table 8”, the IC50 came out at 111 nM.
As to `C=CC1CC1(NC(=O)C1CC(Oc2cc(-c3ccccc3)nc3cc(OC)ccc23)CN1C(=O)C(Nc1cc(F)cc(F)c1)C(C)C)C(=O)O` (centres unmarked) [compound 862], the IC50 (Table 8) was found to be 230 nM.
With `C=CC1CC1(NC(=O)C1CC(Oc2cc(-c3ccccc3)nc3cc(OC(C)C)ccc23)CN1C(=O)C(NC(=O)OC(C)(C)C)C(C)(C)C)C(=O)O` (centres unmarked) [compound 605], 195 nM corresponded to half-maximal inhibition (Table 6) (IC50).
`C=CC1CC1(NC(=O)C1CC(Oc2cc(-c3ccccc3)nc3cc(CC)ccc23)CN1C(=O)C(NC(=O)OC(C)(C)C)C(C)C)C(=O)O` (centres unmarked) [compound 603] gave an IC50 (Table 6) of 195 nM.
For the setting “Table 6”, `C=CC1CC1(NC(=O)C1CC(Oc2cc(-c3ccccc3)nc3cc(N(C)C)ccc23)CN1C(=O)C(NC(=O)OC(C)(C)C)C(C)(C)C)C(=O)O` (centres unmarked) [compound 611] displayed an IC50 of 35 nM.
`C=CC1CC1(NC(=O)C1CC(Oc2cc(N3CCC(C)CC3)nc3cc(OC)ccc23)CN1C(=O)C(NC(=O)OC(C)(C)C)C(C)(C)C)C(=O)O` (centres unmarked) [compound 724]: the IC50 (Table 7) worked out at 75 nM.
The compound `C=CC1CC1(NC(=O)C1CC(Oc2cc(-c3ccccc3)nc3cc(OC)ccc23)CN1C(=O)C(NC(=O)Nc1ccccc1)C(C)(C)C)C(=O)O` (centres unmarked) [compound 812] returned an IC50 (Table 8) of 13 nM.
`C=CC1CC1(NC(=O)C1CC(Oc2cc(-c3ccccc3)nc3cc(OC)ccc23)CN1C(=O)C(CC(C)C)NC(=O)OC(C)(C)C)C(=O)O` (centres unmarked) [compound 848] showed an IC50 (Table 8) of 93 nM.
As to `C=CC1CC1(NC(=O)C1CC(Oc2cc(C=Cc3ccccc3)nc3cc(OC)ccc23)CN1C(=O)C(NC(=O)OC(C)(C)C)C(C)(C)C)C(=O)O` (centres unmarked) [compound 702], the IC50 (Table 7) stood at 100 nM.
`C=CC1CC1(NC(=O)C1CC(Oc2ccnc3cc(Cl)ccc23)CN1C(=O)C(CC(C)C)NC(=O)OC(C)(C)C)C(=O)O` (centres unmarked) [compound 608] returned an IC50 (Table 6) of 1450 nM.

The values above are taken from patent publication US6534523B1, “Hepatitis C inhibitor tri-peptides” (Boehringer Ingelheim (Canada) Ltd., priority 1998, dated 2003).
